Measured values taken from publication PMC9227781, “Inhibitors of O-Acetylserine Sulfhydrylase with a Cyclopropane-Carboxylic Acid Scaffold Are Effective Colistin Adjuvants in Gram Negative Bacteria” (Pharmaceuticals, 2022).
Like-named read-outs stand apart in the source and are kept apart here.

Experiments:
StOASS-B = biological target: T1, StOASS-B (Salmonella typhimurium, UniProt P29848); assay: Fluorescence binding assay on purified recombinant StOASS-B
T1 construct: His-tag (with TEV site) (cleaved yes); made in house; host or cells: E. coli Rosetta (DE3)
T1 sequence (P29848 1-303): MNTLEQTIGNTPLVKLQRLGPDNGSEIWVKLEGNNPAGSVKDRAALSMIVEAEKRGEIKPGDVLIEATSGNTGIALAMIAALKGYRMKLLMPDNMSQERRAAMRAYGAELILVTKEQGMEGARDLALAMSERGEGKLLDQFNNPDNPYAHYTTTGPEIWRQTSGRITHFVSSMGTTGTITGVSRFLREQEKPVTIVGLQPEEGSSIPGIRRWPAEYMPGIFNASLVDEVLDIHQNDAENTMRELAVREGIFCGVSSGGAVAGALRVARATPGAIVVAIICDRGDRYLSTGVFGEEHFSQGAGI
Protocol: (§1) The affinity of the compounds for StOASS-A and StOASS-B was determined on the purified recombinant proteins by an in vitro fluorescence binding assay. Measurements were carried out at 20 °C in a 3 mm pathlength quartz microcuvette in 100 mM HEPES, 5% DMSO (Applichem, Darmstadt, Germany), pH 7.0, using a Fluoromax-4 (Horiba Jobin-Yvon, Kyoto, Japan) spectrofluorometer. Emission spectra of solutions containing 0.2–1.0 μM StOASS, upon excitation of the pyridoxal 5′-phosphate cofactor at 412 nm, in the presence of increasing concentrations of compounds were collected; fluorescence intensities at 500 nm were plotted to compound concentration and data were fitted to a binding isotherm: I=I0+ΔI·compound/KD+compound where I is the fluorescence emission intensity at 500 nm in the presence of a given concentration of compound, I0 is the initial fluorescence emission in the absence of ligands, ΔI is the amplitude of the fluorescence emission change and KD is the dissociation constant. When the KD was lower than the protein concentration, data were fitted to the quadratic equation: I=I0+ΔI·OASS+compound+KD−OASS+compound+KD^2−4·OASS·compound/2
(§2) Data were collected in duplicate.
(§3) Esters were tested up to a concentration of 100 μM and no binding was observed.

E. coli ATCC 25922 = assay: MIC by broth microdilution, E. coli; type: cell-based, Escherichia coli; conditions: Escherichia coli, ATCC25922; compound alone, MHB, 24 h at 37 °C; read-out: MIC (μg/mL) E.coli ATCC 25922
Protocol: (§4) MIC values were evaluated following CLSI guidelines with some modifications, as referred to in previous work. Twofold dilutions 25.6–0.05 mg/mL of the tested compounds were performed in DMSO in separate 96-well microtiter U-plates (Greiner, Milan, Italy). In a different 96-well microtiter U-plate, for each well of the replicates, 49 µL of broth medium were added. Then, in each well of the plate, one microliter of each compound at variable dilution in DMSO was added. For each test, three independent experiments with three replicates each were performed. Tested reference bacterial strains (E. coli ATCC25922; S. Typhimurium ATCC14028; K. pneumoniae ATCC13883) were brought to the logarithmic phase of growth in MHB medium by incubation at 37 °C for 24 h. After incubation, bacterial suspensions were centrifuged (2000 rpm, 4 °C for 20 min), and then the pellets were resuspended in 100 mM phosphate buffer, pH 7.0, to reach a final bacterial concentration of 10^8 CFU/mL, adjusted by spectrophotometry (OD620nm ranged between 0.08–0.13). The obtained suspensions were further diluted 1:100 in broth medium to reach a bacterial concentration of 10^6 CFU/mL. Fifty µL of the bacterial suspension containing 10^6 CFU/mL were inoculated into each well within 30 min, to obtain a final concentration of 5 × 10^5 CFU/mL in a total volume of 100 µL. The final dilution range tested was 256–0.5 µg/mL. Growth and sterility controls were performed for each strain and for each tested compound. Plates were then incubated for 24 h at 37 °C in a static aerobic atmosphere. After incubation, plates were read by unaided eye with a microtiter reading mirror and then the OD of each well of the plates was measured spectrophotometrically at 620 nm. MIC values were calculated as the arithmetic mean ± standard deviation (SD) of the unaided eye reading and the inhibition of growth for each tested dilution was calculated from the OD values (mean ± SD). A quality control microorganism (E. coli ATCC 25922) was tested periodically to validate the accuracy of the procedure.

StOASS-A = biological target: T2, StOASS-A (Salmonella typhimurium, UniProt P0A1E3); assay: Fluorescence binding assay on purified recombinant StOASS-A; parameters: species or system S. Typhimurium
T2 construct: His-tag (with TEV site) (cleaved yes); made in house; host or cells: E. coli Rosetta (DE3)
Protocol: as §1, §2, §3

K. pneumoniae ATCC13883 = assay: MIC by broth microdilution, K. pneumoniae; type: cell-based, Klebsiella pneumoniae; conditions: Klebsiella pneumoniae, ATCC13883; compound alone, MHB, 24 h at 37 °C; read-out: MIC (μg/mL) K. pneumoniae ATCC13883
Protocol: as §4

S. Typhimurium ATCC14028 = assay: MIC by broth microdilution, S. Typhimurium; type: cell-based, Salmonella enterica serovar Typhimurium; conditions: Salmonella enterica; compound alone, MHB, 24 h at 37 °C; read-out: MIC (μg/mL) S. Typhimurium ATCC14028
Protocol: as §4

MDBK cells = assay: Cytotoxicity assay (MTT) on MDBK cells; type: cell-based, bovine; conditions: 32, 16, 8 µg/mL; MTT test
Protocol: The cytotoxicity assay was performed using the 3-(4,5-dimethylthiazol-2-yl)-2,5-diphenyltetrazolium bromide (MTT) test, following the procedure used by Donofrio et al.. MDBK cells were cultured on microtiter tissue culture plates in DMEM medium for 24 h at 37 °C in the presence of 5% CO2. After incubation, when the cell monolayer was at confluence, an aliquot of 1 µL of UPAR415 in DMSO at different concentrations was added in each well, containing a volume of 100 µL of DMEM medium and MDBK cells, and then the plates were reincubated at the same conditions. After incubation, 10 µL of MTT at 200 mg/mL (3-(4,5-dimethylthiazol-2-yl)-2,5-diphenyltetrazolium bromide) was added to each well and incubated at 37 °C for 6 h. At the end of the incubation, 100 µL of the solubilization solution (10% SDS in 0.01 M HCl) was added to each well and then incubated overnight. The MTT compound, a yellow tetrazolium salt, is reduced by mitochondrial enzymes (succinate dehydrogenase) of metabolically active eukaryotic cells to insoluble formazan crystals. In the presence of metabolically active cells, after the addition of a detergent solution (10% SDS in […]) that allows the formazan to be released from the cells, a violet color is seen in the medium. Instead, in the presence of non-viable cells, MTT is not reduced to formazan and therefore the solution will remain yellow.
After incubation, plates were read with a spectrophotometer at 620 nm. Positive controls (PC)—without any compounds—and PCs with 1% DMSO were performed for each plate and three replicates for two independent experiments were performed for each assay.

[1] = 20 °C, 100 mM HEPES, 5% DMSO, pH 7.0, racemic mixture, esters tested up to 100 μM, read-out: KD (μM) OASS-A
[2] = 20 °C, 100 mM HEPES, 5% DMSO, pH 7.0, racemic mixture, esters tested up to 100 μM

T2 sequence (P0A1E3 whole entry): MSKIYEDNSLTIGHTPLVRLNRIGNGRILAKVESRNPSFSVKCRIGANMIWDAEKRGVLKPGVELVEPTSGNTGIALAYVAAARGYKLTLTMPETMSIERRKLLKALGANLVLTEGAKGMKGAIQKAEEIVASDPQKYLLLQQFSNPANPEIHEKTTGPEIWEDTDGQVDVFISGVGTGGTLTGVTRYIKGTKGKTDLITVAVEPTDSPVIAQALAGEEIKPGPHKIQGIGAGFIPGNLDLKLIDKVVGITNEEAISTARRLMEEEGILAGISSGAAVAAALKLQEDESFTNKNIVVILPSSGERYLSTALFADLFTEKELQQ

Row | Structure (SMILES) | Kd (StOASS-B) [µM] | MIC (E. coli ATCC 25922) [µg/mL] | Kd (StOASS-A; [1]) [µM] | MIC (K. pneumoniae ATCC13883) [µg/mL] | MIC (S. Typhimurium ATCC14028) [µg/mL] | KD (μM) OASS-A (StOASS-A; [2]) | KD (μM) OASS-B (StOASS-B; [2]) | Kd (StOASS-B; 20 °C, 100 mM HEPES, 5% DMSO, pH 7.0, racemic mixture, esters tested up to 100 μM, read-out: KD (μM) OASS-B) [µM] | Kd (StOASS-A) [µM] | Toxicity on viability of MDBK cells (MDBK cells)
1 | Cc1ccc(C[C@@]2(C(=O)O)C[C@H]2c2cccc(N3CCOCC3)c2)cc1 (relative stereo) [Compound 13g, trans-1-(4-methylbenzyl)-2-(3-morpholinophenyl)cyclopropanecarboxylic acid] | 3.86 ± 0.29 | > 512 | 0.1 ± 0.01 | > 512 | > 512 | – | – | – | – | –
2 | Cc1ccc(C[C@@]2(C(=O)O)C[C@H]2c2cccc(-c3ccccc3)c2)cc1 (relative stereo) [Compound 9d, trans-2-([1,1′-biphenyl]-3-yl)-1-(4-methylbenzyl)cyclopropanecarboxylic acid] | 6.8 ± 1.1 | > 512 | 2.51 ± 0.61 | > 512 | > 512 | – | – | – | – | –
3 | Cc1ccc(C[C@@]2(C(=O)O)C[C@H]2c2cccc(-c3cccc(F)c3)c2)cc1 (relative stereo) [Compound 9f, trans-2-(3′-fluoro-[1,1′-biphenyl]-3-yl)-1-(4-methylbenzyl)cyclopropanecarboxylic acid] | 1.45 ± 0.31 | > 512 | 0.051 ± 0.004 | > 512 | > 512 | low nanomolar range | – | – | – | –
4 | Cc1ccc(C[C@@]2(C(=O)O)C[C@H]2c2cccc(N3CCN(C)CC3)c2)cc1 (relative stereo) [Compound 21j, trans-1-(4-methylbenzyl)-2-(3-(4-methylpiperazin-1-yl)phenyl)cyclopropanecarboxylic acid] | 23.6 ± 4.5 | > 512 | 0.25 ± 0.06 | > 512 | > 512 | good activity | detrimental effect | – | – | –
5 | CCOC(=O)C1(Cc2ccc(C)cc2)CC1c1cccc(-c2cnc(N)nc2)c1 (centres unmarked) [Compound 8a, ethyl 2-(3-(2-aminopyrimidin-5-yl)phenyl)-1-(4-methylbenzyl)cyclopropanecarboxylate] | – | > 512 | – | > 512 | > 512 | – | – | – | – | –
6 | Cc1ccc(C[C@@]2(C(=O)O)C[C@H]2c2cccc(N3CCNCC3)c2)cc1 (relative stereo) [Compound 21i, trans-1-(4-methylbenzyl)-2-(3-(piperazin-1-yl)phenyl)cyclopropanecarboxylic acid] | – | > 512 | – | > 512 | > 512 | good activity | detrimental effect | 83.8 ± 16.1 | 0.45 ± 0.09 | –
7 | CCOC(=O)[C@]1(Cc2ccc(C)cc2)C[C@H]1c1cccc(-c2cn[nH]c2)c1 (relative stereo) [Compound 8c, trans-ethyl 2-(3-(1H-pyrazol-4-yl)phenyl)-1-(4-methylbenzyl)cyclopropanecarboxylate] | – | > 512 | – | > 512 | > 512 | No binding | No binding | – | – | high toxicity profiles
8 | Cc1ccc(C[C@@]2(C(=O)O)C[C@H]2c2cccc(-c3cnc(N)nc3)c2)cc1 (relative stereo) [Compound 9a, trans-2-(3-(2-aminopyrimidin-5-yl)phenyl)-1-(4-methylbenzyl)cyclopropanecarboxylic acid] | 1.29 ± 0.09 | > 512 | 0.57 ± 0.16 | > 512 | > 512 | – | – | – | – | –
9 | Cc1ccc(C[C@@]2(C(=O)O)C[C@H]2c2cccc(-c3cc(O)cc(F)c3)c2)cc1 (relative stereo) [Compound 9e, trans-2-(3′-fluoro-5′-hydroxy-[1,1′-biphenyl]-3-yl)-1-(4-methylbenzyl)cyclopropanecarboxylic acid] | 0.61 ± 0.08 | > 512 | 0.035 ± 0.003 | > 512 | > 512 | low nanomolar range | – | – | – | –
10 | CCOC(=O)[C@]1(Cc2ccc(C)cc2)C[C@H]1c1cccc(-c2ccccc2)c1 (relative stereo) [Compound 8d, trans-ethyl 2-([1,1′-biphenyl]-3-yl)-1-(4-methylbenzyl)cyclopropanecarboxylate] | – | > 512 | – | > 512 | > 512 | No binding | No binding | – | – | –
11 | Cc1ccc(C[C@@]2(C(=O)O)C[C@H]2c2cccc(-c3cn[nH]c3)c2)cc1 (relative stereo) [Compound 9c, trans-2-(3-(1H-pyrazol-4-yl)phenyl)-1-(4-methylbenzyl)cyclopropanecarboxylic acid] | 3.05 ± 0.18 | > 512 | 1.01 ± 0.38 | > 512 | > 512 | – | – | – | – | –
12 | Cc1ccc(C[C@@]2(C(=O)O)C[C@H]2c2cccc(-c3c[nH]nc3C)c2)cc1 (relative stereo) [Compound 9b, trans-2-(3-(3-methyl-1H-pyrazol-4-yl)phenyl)-1-(4-methylbenzyl)cyclopropanecarboxylic acid] | 2.63 ± 0.04 | > 512 | 1.86 ± 0.76 | > 512 | > 512 | – | – | – | – | –
